The results in this text go back to patent publication US7510704B2, “Cosmetic compositions” (Unilever Home & Personal Care USA division of Conopco, Inc., priority 2001, dated 2009).

For this assay, the system named is Corynebacterium A sp. NCIMB 40928. In words: In vitro model of fatty acid catabolism by axillary bacteria (culture viability and remaining fatty acid after 24 h). It is filed as cell-based. Particulars: for Viability / Fatty acid utilisation: 24 h; for Viability: 35° C.; for Fatty acid utilisation: pentadecanoic acid 2.0 mg/ml. The method, then: This experiment uses the methods of WO 00/01353 to illustrate the much greater efficacy of 4-hydroxy-3-methoxybenzyl alcohol at inhibiting fatty acid catabolism by corynebacteria A, when compared with analogous materials previously disclosed in the aforementioned publication. Data illustrating the sub-lethal aspect of the inhibition are also presented.
An in vitro model system, reproducing fatty acid catabolism by axillary bacteria, was used. To each of several 250 ml baffled shake flasks was added 30 ml semi-synthetic medium (see below), supplemented with fatty acid substrate (2.0 mg/ml pentadecanoic acid) and non-fatty acid substrate (0.5 mg/ml glucose). To each flask (other than the control) was also added one of the indicated test materials, as a 10% (w/v) emulsion in semi-synthetic medium, supplemented with Gum Arabic (5.0 mg/ml). (Emulsions were formed by ultra-homogenisation at 24,000 rpm for about 1 min.) Each of the flasks was inoculated with fresh bacterial biomass (Corynebacterium A sp. NCIMB 40928), pre-grown for 24 h in TSBT (see below), to give starting optical densities (A590) of 1.0-2.0. Following inoculation, the flasks were incubated aerobically at 35° C., with agitation (130 rpm), for 24 hours. After this time, culture viability and remaining fatty acid were determined by methodology as described in […].
Composition of semi-synthetic medium in g/l: KH2PO4 (1.6), (NH4)2HPO4 (5.0), Na2SO4 (0.38), yeast nitrogen base (3.35) (Difco), yeast extract (0.5) (Beta Lab), Tween 80™ (0.2), Triton X-100™ (0.2), and MgCl2.6H2O (0.5).
Composition of TSBT (Tween-supplemented Tryptone soya broth) in g/l: Tryptone soya broth (30.0) (Merck), yeast extract (10.0) (Beta Lab), and Tween 80™ (1.0).
NCIMB 40928 in terms of culture viability and fatty acid utilisation. Various concentrations of active were investigated. It will be noted that for each of the Examples, culture viability was not substantially affected.

Bounds are passed on as bounds.

As for `OCc1ccc(O)cc1` [A, 4-hydroxybenzyl alcohol], the Viability reads like this: (active conc. 0.1 g/l) 8.69 log10CFU/ml; (active conc. 0.25 g/l) 8.85 log10CFU/ml; (active conc. 0.5 g/l) 8.17 log10CFU/ml. Moreover, the Fatty acid utilisation is 100% (active conc. 0.1 g/l), 97% (active conc. 0.25 g/l) and 21% (active conc. 0.5 g/l).
Regarding `COc1ccc(CO)cc1O` [B, 3-hydroxy-4-methoxybenzyl alcohol], the Viability stood at 8.90 log10CFU/ml (active conc. 1.0 g/l), 8.99 log10CFU/ml (active conc. 5.0 g/l) and 8.62 log10CFU/ml (active conc. 10.0 g/l). Further, the Fatty acid utilisation is, setting by setting: (active conc. 1.0 g/l) 99%; (active conc. 5.0 g/l) 86%; (active conc. 10.0 g/l) 29%.
As to `COc1cc(CCO)ccc1O` [C, 4-hydroxy-3-methoxyphenethyl alcohol], the Viability is, setting by setting: (active conc. 1.0 g/l) 8.80 log10CFU/ml; (active conc. 5.0 g/l) 8.60 log10CFU/ml; (active conc. 10.0 g/l) 8.09 log10CFU/ml. Moreover, the Fatty acid utilisation is, setting by setting: (active conc. 1.0 g/l) 99%; (active conc. 5.0 g/l) 59%; (active conc. 10.0 g/l) 26%.
As for `COc1cc(CO)ccc1O` [Example 1, 4-hydroxy-3-methoxybenzyl alcohol], the Viability (active conc. 0.1 g/l) stood at 8.91 log10CFU/ml, the Viability (active conc. 0.25 g/l) came to 8.88 log10CFU/ml and the Viability (active conc. 0.5 g/l) is given as 8.28 log10CFU/ml. The Fatty acid utilisation runs as follows: (active conc. 0.1 g/l) 65%; (active conc. 0.25 g/l) 40%; (active conc. 0.5 g/l) 20%. In addition, the “Reduction of the fatty acid catabolism of corynebacteria A” value (at a concentration of 0.5 mg/ml or less) is “greater than 50%”. For the same molecule, the “Concentration producing sub-lethal inhibition (greater than 50% inhibition of pentadecanoic acid utilisation without reduction in cell viability, ≦1 log10 CFU/ml)” value (corynebacteria A) is at most 0.25 mg/ml.
